Data on five compounds can be found in ChEMBL document CHEMBL1201862, “PubChem BioAssay data set” (2004).

Among the test systems are ACHN; CAKI-1; COLO 205; EKVX; HCT-116; HCT-15; K562; KM12; LXFL 529; M14; NCI-H226; NCI-H23; SF-539; SK-OV-3; SNB-78; SR; U-251; UACC-257; UACC-62; TK-10.
Common to all, as to experiment: NCI-60 cell line screen, 48 h

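96-well plates; 48 h exposure; 5 concentrations. Endpoints by linear interpolation between flanking doses. Not reached: highest tested concentration assigned. The concentration for 50% growth inhibition is given as GI50.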 Active and inactive are the calls of the source. Rule as the data show it: active = GI50 up to about 1.1 µM and inactive = higher.

For the compound `CC1SC(c2ccccc2)N(Nc2c3ccccc3nc3ccccc23)C1=O` (stereo unspecified), the GI50 in the experiment with ACHN is > 100 µM (inactive); with CAKI-1, 46.9 µM (inactive); in the experiment on COLO 205, > 100 µM (inactive); in the experiment with EKVX, 48.2 µM (inactive); in the experiment on HCT-116, 75.3 µM (inactive); in the experiment on HCT-15, 51.8 µM. For the same compound, the GI50 was 40.6 µM (inactive) with K562; 71.4 µM (inactive) with KM12; 43.3 µM (inactive) in the experiment on LXFL 529; > 100 µM (inactive) in the experiment on M14; 55.3 µM (inactive) in the experiment with NCI-H226; 50.4 µM (inactive) in the experiment on NCI-H23. For the same compound, the GI50 with SF-539 was > 100 µM (inactive); with SK-OV-3, 28.4 µM (inactive); with SNB-78 it was > 100 µM (inactive); in the experiment with SR, 42.6 µM (inactive); in the experiment with U-251, > 100 µM (inactive); with UACC-257, 83.6 µM (inactive). Besides, the GI50 with UACC-62 was 89.5 µM (inactive).
As to `O=C1C=CC[C@H]2O[C@@H](COC(=O)Cc3ccccc3)C[C@H]2O1`, the GI50 in the experiment on ACHN is 32.1 µM (inactive); in the experiment on CAKI-1, 38.5 µM (inactive); with COLO 205 it was 47.5 µM (inactive); in the experiment on EKVX, 29.5 µM (inactive); in the experiment on HCT-15, 18.4 µM; with K562, 55.6 µM (inactive). Further, the GI50 in the experiment on KM12 was 18.2 µM (inactive); in the experiment on M14, 31.7 µM (inactive); in the experiment on NCI-H226, 35.4 µM (inactive); in the experiment with NCI-H23, 20.9 µM (inactive); in the experiment on SF-539, 29.6 µM (inactive); in the experiment with SK-OV-3 it was > 100 µM (inactive). The GI50 with SR was 32 µM (inactive); in the experiment with TK-10, 25.9 µM (inactive); with U-251 it was > 10 µM (inactive); in the experiment with UACC-257, 40.4 µM (inactive); in the experiment on UACC-62 it was 41.9 µM (inactive).
On to `CCCCCCCCCCCCCCCCCC(=O)OCC1OC(OC)C(NC(=O)N(CCCl)N=O)C(O)C1O` (stereo unspecified), for which the GI50 in the experiment on ACHN is 15.7 µM (inactive); in the experiment on CAKI-1, > 100 µM (inactive); with COLO 205, 30.3 µM (inactive); in the experiment on HCT-15, 36.1 µM; with K562, 24.6 µM (inactive); in the experiment on KM12, 24.8 µM (inactive). The GI50 with LXFL 529 was 17.3 µM (inactive); in the experiment with M14, 27.8 µM (inactive); in the experiment with NCI-H226 it was 24.9 µM (inactive); in the experiment on NCI-H23 it was 16.4 µM (inactive); with SF-539, 9.86 µM (inactive); in the experiment with SNB-78, 40.4 µM (inactive). Also, the GI50 with SR was 9.04 µM (inactive); in the experiment with TK-10, 38.3 µM (inactive); in the experiment on U-251, > 10 µM (inactive); in the experiment with UACC-257 it was 16.8 µM (inactive); in the experiment on UACC-62, 2.99 µM (inactive).
Take `O=C1c2cccc3c2C(=O)c2c(cccc21)OCCOCCOCCOCCO3`: the GI50 in the experiment with ACHN is 78.5 µM (inactive); in the experiment with CAKI-1, 96.4 µM (inactive); in the experiment on EKVX, > 100 µM (inactive); in the experiment with HCT-116, > 100 µM (inactive); in the experiment with HCT-15 it was more than 100 µM; with K562, 61.4 µM (inactive). Also, the GI50 in the experiment on LXFL 529 is > 100 µM (inactive); with M14, > 100 µM (inactive); in the experiment with NCI-H226, 34.2 µM (inactive); in the experiment on NCI-H23 it was > 100 µM (inactive); in the experiment with SF-539 it was > 100 µM (inactive); in the experiment with SK-OV-3, > 100 µM (inactive). Also, the GI50 with SNB-78 was > 100 µM (inactive); in the experiment on SR it was 14.2 µM (inactive); with TK-10, > 100 µM (inactive); in the experiment with U-251, > 100 µM (inactive); in the experiment on UACC-257, > 100 µM (inactive); with UACC-62, > 100 µM (inactive).
Take `COc1cc(/C=C(\C#N)C(N)=O)cc(Br)c1O`: the GI50 in the experiment with CAKI-1 is > 100 µM (inactive); in the experiment with HCT-116, > 100 µM (inactive); in the experiment on HCT-15, more than 100 µM; in the experiment with KM12 it was > 100 µM (inactive); with NCI-H226 it was > 100 µM (inactive); in the experiment with SF-539, > 100 µM (inactive). For the same compound, the GI50 with SK-OV-3, with SNB-78, with U-251 and in the experiment with UACC-257 was > 100 µM (inactive) each time.
